Patent US6596757B1, “Cytotoxic agents comprising polyethylene glycol-containing taxanes and their therapeutic use” (Immunogen Inc., priority 2002, dated 2003)

Tests used:
[1] = system: MCF-7 cells; assay: In vitro cytotoxicity, MCF-7 cells, 72 hour exposure, surviving fraction by plating efficiency; type: cell-based; settings: MCF-7 (human breast tumor) cells, read-out: IC50 value towards MCF-7 cells
Procedure: (§1) Disulfide-containing and thiol-containing PEGylated taxane drugs of the invention can be evaluated for their ability to suppress proliferation of various unwanted cell lines in vitro. For example, cell lines such as the human lung carcinoma line A549, the human breast tumor line MCF-7, and the Burkitt's lymphoma line Namalwa can easily be used for the assessment of cytotoxicity of these compounds. Cells to be evaluated can be exposed to the compounds for 72 hours and the surviving fractions of cells measured in direct assays by known methods. IC50 values can then be calculated from the results of the assays.
The sulfide, disulfide, and sulfhydryl containing PEGylated taxane drugs of the invention can be evaluated for their ability to suppress proliferation of various human tumor cell lines in vitro. Two adherent cell lines A549(human lung carcinoma) and MCF-7 (human breast tumor) and the non-adherent cell line, Namalwa (Burkitt's lymphoma) are used for the assessment of cytotoxicity of these compounds. Cells are exposed to the compounds for 72 hours and the surviving fractions of cells are measured in direct assays.

[2] = system: A-431 cells; assay: In vitro cytotoxicity, A-431 cells; type: cell-based; settings: read-out: IC50 towards A-431 cells
Procedure: as §1
Cytotoxicity of the PEGylated taxanes and their antibody conjugates to non-adherent cell lines such as Namalwa and HL-60 can be measured by back-extrapolation of cell proliferation curves as described in Goldmacher et al, 135 J. Immunol. 3648-3651 (1985). Cytotoxicity of these compounds to adherent cell lines such as SKBR3 and A431 can be determined by clonogenic assays as described in Goldmacher et al, 102 J. Cell Biol. 1312-1319 (1986).

| SMILES | IC50 [1] [nM] | IC50 [2] [nM] |
| --- | --- | --- |
| COc1ccc(OC)c(C(=O)OC2C3C4(OC(C)=O)COC4CC(O)C3(C)C(=O)C(OC(=O)CCOCCOCCOCCOCCSSC)C3=C(C)C(OC(=O)C(O)C(C=C(C)C)NC(=O)OC(C)(C)C)CC2(O)C3(C)C)c1 (stereo not drawn) [taxoid 17, 3′-Dephenyl-3′-(isobutenyl)-2-debenzoyl-2-(2,5-dimethoxybenzoyl)-10-(15-methyldithio-4,7,10,13-tetraoxapentadecanoyl)-docetaxel] | 0.063 | 0.33 |
| COc1ccc(OC)c(C(=O)OC2C3C4(OC(C)=O)COC4CC(OC(=O)CCOCCOCCOCCOCCSSC)C3(C)C(=O)C(O)C3=C(C)C(OC(=O)C(O)C(C=C(C)C)NC(=O)OC(C)(C)C)CC2(O)C3(C)C)c1 (stereo not drawn) [taxoid 20, 3′-Dephenyl-3′-(isobutenyl)-2-debenzoyl-2-(2,5-dimethoxybenzoyl)-7-(15-methyldithio-4,7,10,13-tetraoxapentadecanoyl)-docetaxel] | 0.32 |  |
